We go through nine compounds from ChEMBL document CHEMBL3853300, “Synthesis of α-santonin derived acetyl santonous acid triazole derivatives and their bioevaluation for T and B-cell proliferation” (Eur J Med Chem, 2016).

A word on the inhibition: it is the drop in the measured response relative to a control, in per cent.

The species entered for data set [1] is Mus musculus. Put plainly: Cytotoxicity against Balb/c mouse B cells assessed as decrease in cell viability at 100 uM after 48 hrs by MTT assay. The format is toxicity, cell-based.
For data set [2], the species on record is Mus musculus. Kind of data set: Cytotoxicity against Balb/c mouse B cells assessed as decrease in cell viability at 10 uM after 48 hrs by MTT assay. The format is toxicity, cell-based. On the technique in general: Tetrazolium dyes change colour on reduction, which living cells bring about.
The species named for data set [3] is Mus musculus. Kind of data set: Cytotoxicity against Balb/c mouse B cells assessed as decrease in cell viability at 1 uM after 48 hrs by MTT assay. The format is toxicity, cell-based.
The species entered for data set [4] is Mus musculus. Kind of data set: Cytotoxicity against Balb/c mouse T cells assessed as decrease in cell viability at 100 uM after 48 hrs by MTT assay. The format is toxicity, cell-based.
The species entered for data set [5] is Mus musculus. Put plainly: Cytotoxicity against Balb/c mouse T cells assessed as decrease in cell viability at 10 uM after 48 hrs by MTT assay. The format is toxicity, cell-based.
The species named for data set [6] is Mus musculus. Kind of data set: Cytotoxicity against Balb/c mouse T cells assessed as decrease in cell viability at 1 uM after 48 hrs by MTT assay. The format is toxicity, cell-based.
The nature of data set [7]: Immunosuppressive activity in Balb/c mouse T cells assessed as inhibition of ConA-induced cell proliferation at 100 uM after 48 hrs by MTT assay relative to control. The format is functional.
Data set [8] is described as follows: Immunosuppressive activity in Balb/c mouse B cells assessed as inhibition of LPS-induced cell proliferation at 100 uM after 48 hrs by MTT assay relative to control. The format is functional.
A short description of data set [9]: Immunosuppressive activity in Balb/c mouse B cells assessed as inhibition of LPS-induced cell proliferation at 10 uM after 48 hrs by MTT assay relative to control. The format is functional.
The nature of data set [10]: Immunosuppressive activity in Balb/c mouse B cells assessed as inhibition of LPS-induced cell proliferation at 1 uM after 48 hrs by MTT assay relative to control. The format is functional.
The subject of the next data set is T-cell. Kind of data set: Immunosuppressive activity in Balb/c mouse T cells assessed as inhibition of ConA-induced cell proliferation after 48 hrs by MTT assay relative to control. The format is functional, cell-based.
Data set [11] is described as follows: Immunosuppressive activity in Balb/c mouse T cells assessed as inhibition of ConA-induced cell proliferation at 10 uM after 48 hrs by MTT assay relative to control. The format is functional.
The nature of data set [12]: Immunosuppressive activity in Balb/c mouse T cells assessed as inhibition of ConA-induced cell proliferation at 1 uM after 48 hrs by MTT assay relative to control. The format is functional.
A further data set has as its system B. Put plainly: Immunosuppressive activity in Balb/c mouse B cells assessed as inhibition of LPS-induced cell proliferation after 48 hrs by MTT assay relative to control. The format is functional, cell-based.

Take `COc1cc(-n2cc(COC(=O)[C@H](C)[C@@H]3CCc4c(C)cc(OC(C)=O)c(C)c4C3)nn2)cc(OC)c1OC`: the Activity result in the data set filed under Mus musculus [1] is listed as “Non-Toxic”; in the data set listed under Mus musculus [2], “Toxic”; in the data set filed under Mus musculus [3], “Toxic”; in the data set listed under Mus musculus [4] it was “Non-Toxic”; in the data set filed under Mus musculus [5], “Toxic”; in the data set listed under Mus musculus [6], “Toxic”. In addition, the inhibition at 100 µM in data set [7] was found to be 83.3%; in data set [8], 89.3%. Also, the values for the inhibition at 10 µM in data set [9] and in [11] were 22.1% and 37.1%, respectively. Further, the values for the inhibition at 1 µM in [10] and in [12] were 42% and 45.5%, respectively. Also, the inhibition entry with T-cell and with B was “Dose-dependent effect” in each case.
In the case of `CC(=O)Oc1cc(C)c2c(c1C)C[C@H]([C@@H](C)C(=O)OCc1cn(-c3cccnc3Cl)nn1)CC2`, the Activity entry is reported as “Non-Toxic” in the data set filed under Mus musculus [1]; “Toxic” in the data set listed under Mus musculus [2]; “Toxic” in the data set filed under Mus musculus [3]; “Non-Toxic” in the data set listed under Mus musculus [4]; “Toxic” in the data set filed under Mus musculus [5]; “Toxic” in the data set filed under Mus musculus [6]. Also, the figures for the inhibition at 100 µM in data set [7] and in [8] were 17.6% and 22.5%, respectively. Also, the inhibition at 10 µM is 15.4% in data set [9] and 25% in data set [11]. The inhibition at 1 µM was determined as 30.8% in data set [10] and 5.88% in [12]. Further, the inhibition entry in the data set with T-cell and in the data set with B was “Dose-dependent effect” each time.
As to `CC(=O)Oc1cc(C)c2c(c1C)C[C@H]([C@@H](C)C(=O)OCc1cn(-c3ccc(C#N)cc3)nn1)CC2`, the Activity entry in the data set filed under Mus musculus [1], in the data set filed under Mus musculus [2], in the data set filed under Mus musculus [3], in the data set listed under Mus musculus [4], in the data set filed under Mus musculus [5] and in the data set listed under Mus musculus [6] was “Toxic” each time. Further, the inhibition at 100 µM in data set [7] worked out at 59.8%; in data set [8], 67.9%. The inhibition at 10 µM in data set [9] was determined as 80.9%; in data set [11] it was 52.3%. The inhibition at 1 µM in data set [10] turned out to be 76.3%; in data set [12], 35.6%. In addition, the inhibition result with T-cell and in the data set on B was “Dose-dependent effect” throughout.
In the case of `CC(=O)Oc1cc(C)c2c(c1C)C[C@H]([C@@H](C)C(=O)OCc1cn(-c3ccc(Cl)cc3)nn1)CC2`, the Activity result in the data set listed under Mus musculus [1] was “Toxic”; in the data set listed under Mus musculus [2], “Non-Toxic”; in the data set filed under Mus musculus [3], “Toxic”; in the data set listed under Mus musculus [4] it was “Toxic”; in the data set listed under Mus musculus [5], “Non-Toxic”; in the data set filed under Mus musculus [6] it was “Toxic”. Also, the inhibition at 100 µM came out at 13% in [7] and 34.3% in data set [8]. In addition, the inhibition at 10 µM in data set [9] came to 25.1%; in [11], 28.7%. For the same compound, the inhibition at 1 µM in data set [10] was 34.3%; in [12], 37%. The inhibition entry with T-cell and in the data set on B was “Dose-dependent effect” throughout.
Consider `CC(=O)Oc1cc(C)c2c(c1C)C[C@H]([C@@H](C)C(=O)OCc1cn(-c3cccc([N+](=O)[O-])c3)nn1)CC2`, for which the Activity result was “Non-Toxic” in the data set listed under Mus musculus [1]; “Toxic” in the data set filed under Mus musculus [2]; “Toxic” in the data set listed under Mus musculus [3]; “Non-Toxic” in the data set listed under Mus musculus [4]; “Toxic” in the data set filed under Mus musculus [5]; “Toxic” in the data set filed under Mus musculus [6]. Also, the inhibition at 100 µM in data set [7] was determined as 10.2%; in data set [8], 24.6%. In addition, the inhibition at 10 µM in data set [9] came out at 26.9%; in data set [11] it was 30.6%. In addition, the inhibition at 1 µM in data set [10] was found to be 29.1%; in data set [12] it was 45.4%. Further, the inhibition entry with T-cell and in the data set on B was “Dose-dependent effect” in each case.
Regarding `CC(=O)Oc1cc(C)c2c(c1C)C[C@H]([C@@H](C)C(=O)OCc1cn(Cc3ccccc3)nn1)CC2`, the Activity entry is “Toxic” in the data set filed under Mus musculus [1]; “Non-Toxic” in the data set filed under Mus musculus [2]; “Non-Toxic” in the data set filed under Mus musculus [3]; “Toxic” in the data set filed under Mus musculus [4]; “Non-Toxic” in the data set filed under Mus musculus [5]; “Non-Toxic” in the data set filed under Mus musculus [6]. Besides, the inhibition at 100 µM was found to be 44% in [7] and 32.3% in data set [8]. In addition, the inhibition at 10 µM in data set [9] is 33.5%; in [11], 39.2%. Besides, the inhibition at 1 µM in [10] worked out at 48.6%; in data set [12] it was 33%. In addition, the inhibition result in the data set with T-cell and in the data set with B was “Dose-dependent effect” throughout.
`CCCCCn1cc(COC(=O)[C@H](C)[C@@H]2CCc3c(C)cc(OC(C)=O)c(C)c3C2)nn1`: the Activity result in the data set filed under Mus musculus [1], in the data set filed under Mus musculus [2], in the data set filed under Mus musculus [3], in the data set listed under Mus musculus [4], in the data set listed under Mus musculus [5] and in the data set listed under Mus musculus [6] was “Toxic” in each case. Also, the inhibition at 100 µM came out at 30.6% in [7] and 43.1% in data set [8]. For the same compound, the inhibition at 10 µM in data set [9] was 41.9%; in data set [11], 27.6%. In addition, the figures for the inhibition at 1 µM in [10] and in data set [12] were 42.4% and 15.6%, respectively. For the same compound, the inhibition entry with T-cell and in the data set on B was “Dose-dependent effect” in each case.
`CC(=O)Oc1cc(C)c2c(c1C)C[C@H]([C@@H](C)C(=O)OCc1cn(-c3ccc(O)cc3)nn1)CC2`: the Activity entry in the data set filed under Mus musculus [1] is given as “Toxic”; in the data set listed under Mus musculus [2] it was “Toxic”; in the data set filed under Mus musculus [3], “Non-Toxic”; in the data set listed under Mus musculus [4], “Toxic”; in the data set filed under Mus musculus [5], “Toxic”; in the data set filed under Mus musculus [6], “Non-Toxic”. In addition, the inhibition at 100 µM in data set [7] was determined as 17.6%; in data set [8], 29.7%. In addition, the values for the inhibition at 10 µM in [9] and in data set [11] were 26.3% and 5.55%, respectively. Moreover, the inhibition at 1 µM came to 36.6% in [10] and 33.3% in [12]. Also, the inhibition entry with T-cell and in the data set on B was “Dose-dependent effect” in each case.
With `CC(=O)Oc1cc(C)c2c(c1C)[C@@H]1OC(=O)[C@@H](C)[C@@H]1CC2`, the Activity result is “Non-Toxic” in the data set filed under Mus musculus [1]; “Toxic” in the data set filed under Mus musculus [2]; “Toxic” in the data set filed under Mus musculus [3]; “Non-Toxic” in the data set filed under Mus musculus [4]; “Toxic” in the data set filed under Mus musculus [5]; “Toxic” in the data set filed under Mus musculus [6]. The inhibition at 100 µM was 75% in [7] and 70% in data set [8]. The inhibition at 10 µM in data set [9] turned out to be 44.3%; in data set [11], 49.2%. Also, the inhibition at 1 µM in [10] was 61.8%; in data set [12], 47.7%. For the same compound, the inhibition result in the data set on T-cell and with B was “Dose-dependent effect” each time.
